The values that follow come from ChEMBL document CHEMBL1146101, “Fluorine-substituted cyclofenil derivatives as estrogen receptor ligands: synthesis and structure-affinity relationship study of potential positron emission tomography agents for imaging estrogen receptors in breast cancer” (J Med Chem, 2006).

SMILES strings stand for the structures.

The target in experiment [1] is Estrogen receptor beta (Homo sapiens) (UniProt Q92731). Kind of experiment: Binding affinity to human ERbeta relative to estradiol by radiometric binding assay.
Sequence of Estrogen receptor beta (Homo sapiens) (Q92731 whole entry, looked up): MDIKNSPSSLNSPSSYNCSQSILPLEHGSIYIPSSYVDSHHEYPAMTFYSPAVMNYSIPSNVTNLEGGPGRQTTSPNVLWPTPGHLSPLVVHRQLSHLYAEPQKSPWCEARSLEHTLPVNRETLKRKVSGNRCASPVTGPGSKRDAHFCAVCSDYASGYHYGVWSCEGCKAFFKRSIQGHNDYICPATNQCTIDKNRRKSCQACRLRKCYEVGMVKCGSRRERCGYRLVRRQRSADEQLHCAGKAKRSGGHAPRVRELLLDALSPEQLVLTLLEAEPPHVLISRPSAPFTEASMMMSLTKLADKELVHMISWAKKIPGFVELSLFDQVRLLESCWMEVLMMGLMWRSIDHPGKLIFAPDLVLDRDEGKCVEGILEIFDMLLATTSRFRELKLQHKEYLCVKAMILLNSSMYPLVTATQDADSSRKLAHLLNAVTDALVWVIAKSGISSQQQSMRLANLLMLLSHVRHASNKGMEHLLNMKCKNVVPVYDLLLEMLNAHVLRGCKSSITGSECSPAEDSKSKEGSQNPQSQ
In experiment [2] the target is Estrogen receptor alpha (Homo sapiens) (UniProt P03372). Kind of experiment: Binding affinity to human ERalpha relative to estradiol by radiometric binding assay.
Sequence of Estrogen receptor alpha (Homo sapiens) (P03372 whole entry, looked up): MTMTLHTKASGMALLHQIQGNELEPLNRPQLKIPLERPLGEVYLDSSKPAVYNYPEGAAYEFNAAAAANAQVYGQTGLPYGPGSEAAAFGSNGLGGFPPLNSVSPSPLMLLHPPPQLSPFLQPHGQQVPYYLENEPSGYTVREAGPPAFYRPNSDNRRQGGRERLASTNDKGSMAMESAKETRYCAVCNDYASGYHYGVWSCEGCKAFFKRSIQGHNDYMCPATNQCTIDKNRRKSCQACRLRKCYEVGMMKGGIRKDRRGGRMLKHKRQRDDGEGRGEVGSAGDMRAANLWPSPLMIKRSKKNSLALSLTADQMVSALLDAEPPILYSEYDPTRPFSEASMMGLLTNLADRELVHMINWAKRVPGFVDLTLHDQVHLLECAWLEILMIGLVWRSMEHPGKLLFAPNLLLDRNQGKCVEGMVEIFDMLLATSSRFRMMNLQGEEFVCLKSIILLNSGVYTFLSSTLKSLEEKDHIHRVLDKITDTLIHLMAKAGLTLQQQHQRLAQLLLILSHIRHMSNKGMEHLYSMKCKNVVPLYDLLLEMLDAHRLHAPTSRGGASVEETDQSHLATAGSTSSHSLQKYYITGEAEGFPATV
The species entered for experiment [3] is Homo sapiens. The experiment in a line: Selectivity for ERbeta over ERalpha.

As for `Oc1ccc(C(=C2CCC(CCF)CC2)c2ccc(O)cc2)cc1` (configuration not stated), the relative binding affinity (RBA) stood at 18.9 in experiment [1] and 15.9 in experiment [2]. Moreover, in experiment [3], the Ratio worked out at 1.2.
On the same counts, the results for `Oc1ccc(C(=C2CCCC2)c2ccc(O)cc2)cc1` are 137, 17.8 and 7.7.
On the same counts, the results for `OCC1CCC(=C(c2ccc(O)cc2)c2ccc(O)cc2)CC1` (configuration not stated) are 0.841, 0.846 and 0.99.
On the same counts, the results for `OCCCC1CCCC(=C(c2ccc(O)cc2)c2ccc(O)cc2)C1` (configuration not stated) are 46.1, 47.2 and 0.98.
On to `CCC1CCC(=C(c2ccc(O)cc2)c2ccc(O)cc2)CC1` (configuration not stated), for which the relative binding affinity (RBA) in experiment [1] stood at 75.6; in experiment [2], 62.7. For the same compound, the Ratio in experiment [3] turned out to be 1.2.
Turning to `Oc1ccc(C(=C2CCCC(CCF)C2)c2ccc(O)cc2)cc1` (configuration not stated), the values for the relative binding affinity (RBA) in experiment [1] and in experiment [2] were 129 and 122, respectively. Besides, in experiment [3], the Ratio worked out at 1.1.
As to `Oc1ccc(C(=C2CCCCC2)c2ccc(O)cc2)cc1`, the relative binding affinity (RBA) in experiment [1] came to 285; in experiment [2], 124. The Ratio in experiment [3] is 2.3.
For the compound `COC(=O)C(C(=O)OC)C1CCCC(=C(c2ccc(O)cc2)c2ccc(O)cc2)C1` (configuration not stated), the relative binding affinity (RBA) in experiment [1] is 0.234; in experiment [2], 19.5. For the same compound, the Ratio in experiment [3] is 0.012.
In the same order, the values of `CC1CCC(=C(c2ccc(O)cc2)c2ccc(O)cc2)CC1` (configuration not stated) are 274, 66.5 and 4.1.
On the same counts, the results for `Oc1ccc(C(=C2CCCC(CCCF)C2)c2ccc(O)cc2)cc1` (configuration not stated) are 91.4, 160 and 0.57.
On the same counts, the results for `Oc1ccc(C(=C2CCC(CF)CC2)c2ccc(O)cc2)cc1` (configuration not stated) are 41.5, 18.1 and 2.3.
Turning to `OCCC1CCCC(=C(c2ccc(O)cc2)c2ccc(O)cc2)C1` (configuration not stated), the figures for the relative binding affinity (RBA) in experiment [1] and in experiment [2] were 57.6 and 33.9, respectively. In addition, in experiment [3], the Ratio is 1.7.
Regarding `Oc1ccc(C(=C2CCC(CCOCCCCF)CC2)c2ccc(O)cc2)cc1` (configuration not stated), the relative binding affinity (RBA) in experiment [1] was 1.45; in experiment [2], 3.77. Moreover, in experiment [3], the Ratio was 0.38.
On the same counts, the results for `OCCC1CCC(=C(c2ccc(O)cc2)c2ccc(O)cc2)CC1` (configuration not stated) are 0.372, 2.61 and 0.14.
Turning to `CCOCC1CCC(=C(c2ccc(O)cc2)c2ccc(O)cc2)CC1` (configuration not stated), the relative binding affinity (RBA) in experiment [1] came out at 2.82; in experiment [2] it was 4.88. Moreover, the Ratio in experiment [3] was determined as 0.58.
As for `COC(=O)C1CCCC(=C(c2ccc(O)cc2)c2ccc(O)cc2)C1` (configuration not stated), the relative binding affinity (RBA) in experiment [1] amounted to 36.5; in experiment [2], 23.7. The Ratio in experiment [3] is 1.5.
On the same counts, the results for `Oc1ccc(C(=C2CCC(F)CC2)c2ccc(O)cc2)cc1` (configuration not stated) are 61.8, 27 and 2.3.
Take `Oc1ccc(C(=C2CCC(O)CC2)c2ccc(O)cc2)cc1` (configuration not stated): the figures for the relative binding affinity (RBA) in experiment [1] and in experiment [2] were 0.307 and 0.327, respectively. Also, the Ratio in experiment [3] turned out to be 0.94.
In the same order, the values of `Oc1ccc(C(=C2CCC2)c2ccc(O)cc2)cc1` are 20.5, 5.61 and 3.7.
In the same order, the values of `CCOC(=O)C1CCC(=C(c2ccc(O)cc2)c2ccc(O)cc2)CC1` (configuration not stated) are 3.02, 6.77 and 0.45.
In the same order, the values of `Oc1ccc(C(=C2CCCCCC2)c2ccc(O)cc2)cc1` are 354, 110 and 3.2.
Take `COC(=O)CC1CCCC(=C(c2ccc(O)cc2)c2ccc(O)cc2)C1` (configuration not stated): the relative binding affinity (RBA) in experiment [1] stood at 10.3; in experiment [2], 58.5. Besides, the Ratio in experiment [3] amounted to 0.18.
In the same order, the values of `COC(=O)CC1CCC(=C(c2ccc(O)cc2)c2ccc(O)cc2)CC1` (configuration not stated) are 1.72, 10.7 and 0.16.
Turning to `OCC1CCCC(=C(c2ccc(O)cc2)c2ccc(O)cc2)C1` (configuration not stated), the relative binding affinity (RBA) was 39.6 in experiment [1] and 24.8 in experiment [2]. Besides, the Ratio in experiment [3] stood at 1.6.
